Source: ChEMBL document CHEMBL5537211, “Synthesis and Antifungal Activity of Stereoisomers of Mefloquine Analogs” (2024)
≈ marks a conversion by molar mass, not a printed value.

How the values were obtained:
Format in all cases: functional
Cryptococcus neoformans [1] = assay: Antifungal activity against Cryptococcus neoformans H99 assessed as fungal growth inhibition incubated for 72 hrs by CLSI protocol based microbroth dilution assay
Candida albicans [2] = assay: Antifungal activity against Candida albicans SC5314 assessed as fungal growth inhibition incubated for 24 hrs by CLSI protocol based microbroth dilution assay
Cryptococcus neoformans [3] = assay: Antifungal activity against Cryptococcus neoformans by CLSI M27-A3 protocol based absorbance assay
Candida albicans [4] = assay: Antifungal activity against Candida albicans by CLSI M27-A3 protocol based absorbance assay
[5] = Selectivity ratio of MIC for antifungal activity against Candida albicans SC5314 to MIC for antifungal activity against Cryptococcus neoformans H99
Cryptococcus neoformans [6] = assay: Antifungal activity against Cryptococcus neoformans
Candida albicans [7] = assay: Antifungal activity against Candida albicans

OC(c1cc(-c2ccc(Cl)cc2)nc2c(Cl)cccc12)C1CCCCN1 (racemic)
MIC (Cryptococcus neoformans [1]): 2 µg/mL (≈ 5.16 µM)
MIC (Candida albicans [2]): 8 µg/mL (≈ 20.7 µM)
MIC (Cryptococcus neoformans [3]): 1 µg/mL (≈ 2.58 µM)
MIC (Candida albicans [4]): 4 µg/mL (≈ 10.3 µM)

O[C@@H](c1cc(C(F)(F)F)nc2c(C(F)(F)F)cccc12)[C@H]1CCCCN1 (racemic) [(S,R)-MEFLOQUINE]
MIC (Cryptococcus neoformans [1]): 16 µg/mL (≈ 42.3 µM)
MIC (Candida albicans [2]): 128 µg/mL (≈ 338 µM)
Selectivity ratio [5]: 8
MIC (Cryptococcus neoformans [6]): 32 µg/mL (≈ 84.6 µM)
MIC (Candida albicans [7]): > 128 µg/mL

O[C@H](c1cc(-c2ccc(Cl)cc2)nc2c(Cl)cccc12)[C@H]1CCCCN1
MIC (Cryptococcus neoformans [1]): 2 µg/mL (≈ 5.16 µM)
MIC (Candida albicans [2]): 8 µg/mL (≈ 20.7 µM)

Cl.O[C@@H](c1cc(-c2ccc(Cl)cc2)nc2ccccc12)[C@H]1CCCCN1 (racemic)
MIC (Cryptococcus neoformans [1]): 8 µg/mL
MIC (Candida albicans [2]): 16 µg/mL

O[C@@H](c1cc(-c2ccc(Cl)cc2)nc2c(Cl)cccc12)[C@@H]1CCCCN1
MIC (Cryptococcus neoformans [1]): 2 µg/mL (≈ 5.16 µM)
MIC (Candida albicans [2]): 8 µg/mL (≈ 20.7 µM)

Cl.O[C@@H](c1cc(-c2ccc(Cl)cc2)nc2ccccc12)[C@@H]1CCCCN1 (racemic)
MIC (Cryptococcus neoformans [1]): 16 µg/mL
MIC (Candida albicans [2]): 64 µg/mL

O[C@H](c1cc(-c2ccc(Cl)cc2)nc2c(Cl)cccc12)[C@@H]1CCCCN1
MIC (Cryptococcus neoformans [1]): 1 µg/mL (≈ 2.58 µM)
MIC (Candida albicans [2]): 4 µg/mL (≈ 10.3 µM)

O[C@@H](c1cc(-c2ccc(Cl)cc2)nc2c(Cl)cccc12)[C@H]1CCCCN1
MIC (Cryptococcus neoformans [1]): 1 µg/mL (≈ 2.58 µM)
MIC (Candida albicans [2]): 4 µg/mL (≈ 10.3 µM)

OC(Cn1cncn1)(Cn1cncn1)c1ccc(F)cc1F [FLUCONAZOLE]
MIC (Cryptococcus neoformans [1]): 2 µg/mL (≈ 6.53 µM)
MIC (Candida albicans [2]): ≤ 0.125 µg/mL

OC(c1cc(C2CC3CCC2CC3)nc2c(Cl)cc(Cl)cc12)C1CCCCN1 (racemic)
MIC (Cryptococcus neoformans [6]): 0.4 µg/mL (≈ 0.954 µM)
MIC (Candida albicans [7]): 1.5 µg/mL (≈ 3.58 µM)
